Data taken from PMC7126545 (Bioorganic & Medicinal Chemistry Letters, 2016).

Legend:
[1] = tested on: L1210, CEM and HeLa cells; conditions: for cytostatic activity (in words): tumour cell lines
[2] = in vitro; conditions: mouse (L1210), human (CEM, HeLa)
[3] = in vitro

IC50 [2] [µM]	SMILES	cytostatic activity (in words) [1]	CC50 [3] [µM]	times less potent than EAdo ([1]; cytostatic potency relative to EAdo in the three cell lines)
–	C#C[C@@]1(O)[C@@H](CO)O[C@@H](n2cnc3c(N)ncnc32)[C@@H]1O [Compound 1, 3′-C-ethynyladenosine, reference compound]	potent cytostatic activity	–	–
–	C#C[C@@]1(O)[C@@H](CO)O[C@@H](n2cnc3c(N)nc(Cl)nc32)[C@@H]1O [Compound 7]	did not show any cytostatic activity	–	–
22 to 50	C#C[C@@]1(O)[C@@H](CO)O[C@@H](n2cnc3c(NCc4cccc(Cl)c4)nc(Cl)nc32)[C@@H]1O [Compound 10]	–	34.5	at least 30
